In patent US20240285534A1, “CO-AMORPHOUS SOLID FORMS OF FLAVONOIDS” (ALPARIS, S.A. de C.V., priority 2022, published 2024):

Experiments:
[1] = Wen et al., Molecules 2010; cited from earlier work
[2] = Solubility test in water (supersaturated solutions); assay type: physicochemical; conditions: 22 mg added to 0.5 ml of water
Procedure: Supersaturated solutions of naringenin and NRG:ARG 1:3 NSF were prepared from 0.5 ml of water.

Q: What does the source list for `O=C1C[C@@H](c2ccc(O)cc2)Oc2cc(O)cc(O)c21` [naringenin, Naringenin]?
A: reported solubility [1]: 4.38 µg/mL; dissolution in water [2]: practically it did not dissolve at all
